Test results taken from patent US20120189673A1, “POLYPEPTIDES AND USES THEREOF” (priority 2009, published 2012).
Where two headings read alike, the source gives them in different places.

Columns and labels:
P. aeruginosa = experiment: Viable count analysis, P. aeruginosa; assay type: cell-based, Pseudomonas aeruginosa; conditions: for killing in human plasma compared with physiological buffer: 20% human citrate plasma
Experimental: Viable count analysis—E. coli strains were grown to mid-logarithmic phase in Todd-Hewitt (TH). P. aeruginosa strains were grown in TH overnight. Bacteria were washed and diluted in 10 mM Tris, pH 7.4 containing 5 mM glucose. 2×10^6 cfu/ml bacteria were incubated in 50 μl, at 37° C. for 2 h with the C-terminal TFPI-derived peptides GGL27, TKR22, or LIK17 at the indicated concentrations. Additional experiments were performed in 10 mM Tris, pH 7.4, containing 0.15 M NaCl, either alone or with 20% normal or heat inactivated citrate-plasma. Serial dilutions of the incubation mixture were plated on TH agar, followed by incubation at 37° C. overnight and cfu determination.

[1] = test system: thrombin induced fibrin network formation in normal human plasma; experiment: Clotting assay: thrombin clotting time (TCT); assay type: biochemical
Experimental: Clotting assays. All clotting times were measured using an Amelung coagulometer. Activated partial thromboplastin time (aPTT) was measured by incubating the peptides diluted in sterile water at the indicated concentrations, with 100 μL citrated human plasma for 1 minute followed by the addition of 100 μL aPTT reagent (aPTT Automate, Diagnostica Stago) for 60 seconds at 37° C. Clotting was initiated by the addition of 100 μL of a 25-mM CaCl2 solution. In the prothombrin time assay (PT), clotting was initiated by the addition of 100 μL Thrombomax with calcium (PT reagent; Sigma-Aldrich). For measuring the thrombin clotting time (TCT), clotting was initiated by the addition of 100 μL Accuclot thrombin time reagent (TCT reagent; Sigma-Aldrich).

[2] = Liposome leakage assay (carboxyfluorescein release); conditions: for CF release from liposomes: 10 mM Tris-buffer; for share of the maximal CF release: within 5-10 minutes, 1 μM of peptides
Text: Liposome preparation and leakage assay. The liposomes investigated were either zwitterionic (DOPC/cholesterol 60/40 mol/mol or DOPC without cholesterol) or anionic (DOPE/DOPG 75/25 mol/mol). DOPG (1,2-Dioleoyl-sn-Glycero-3-Phosphoglycerol, monosodium salt), DOPC (1,2-dioleoyl-sn-Glycero-3-phosphocholine), and DOPE (1,2-dioleoyl-sn-Glycero-3-phosphoetanolamine) were all from Avanti Polar Lipids (Alabaster, USA) and of >99% purity, while cholesterol (>99% purity), was from Sigma-Aldrich (St. Louis, USA). Due to the long, symmetric and unsaturated acyl chains of these phospholipids, several methodological advantages are reached. In particular, membrane cohesion is good, which facilitates very stable, unilamellar, and largely defect-free liposomes (observed from cryo-TEM) and well defined supported lipid bilayers (observed by ellipsometry and AFM), allowing detailed values on leakage and adsorption density to be obtained. The lipid mixtures were dissolved in chloroform, after which solvent was removed by evaporation under vacuum overnight. Subsequently, 10 mM Tris buffer, pH 7.4, was added together with 0.1 M carboxyfluorescein (CF) (Sigma, St. Louis, USA). After hydration, the lipid mixture was subjected to eight freeze-thaw cycles consisting of freezing in liquid nitrogen and heating to 60° C. Unilamellar liposomes of about Ø140 nm were generated by multiple extrusions through polycarbonate filters (pore size 100 nm) mounted in a LipoFast miniextruder (Avestin, Ottawa, Canada) at 22° C. Untrapped CF was removed by two subsequent gel filtrations (Sephadex G-50, GE Healthcare, Uppsala, Sweden) at 22° C., with Tris buffer as eluent. CF release from the liposomes was determined by monitoring the emitted fluorescence at 520 nm from a liposome dispersion (10 mM lipid in 10 mM Tris, pH 7.4). An absolute leakage scale was obtained by disrupting the liposomes at the end of each experiment through addition of 0.8 mM Triton X-100 (Sigma-Aldrich, St. Louis, USA). A SPEX-fluorolog 1650 0.22-m double spectrometer (SPEX Industries, Edison, USA) was used for the liposome leakage assay in Tris buffer in the absence and presence of liposomes under conditions described above. Measurements were performed in triplicate at 37° C.
Liposome preparation and leakage assay—The liposomes investigated were anionic (DOPE/DOPG 75125 mol/mol). DOPG (1,2-Dioleoyl-sn-Glycero-3-Phosphoglycerol, monosodium salt) and DOPE (1,2-dioleoyl-sn-Glycero-3-phoshoetanolamine) were both from Avanti Polar Lipids (Alabaster, USA) and of >99% purity. […] CF release from the liposomes was determined by monitoring the emitted fluorescence at 520 nm from a liposome dispersion (10 µM lipid in 10 mM Tris, pH 7.4). […]

| Sequence | potentiating effect of native plasma compared with heat-inactivated plasma (P. aeruginosa) | killing in human plasma compared with physiological buffer (P. aeruginosa) | thrombin clotting time (TCT) [1] | thrombin clotting time (TCT) ([1]; listed as GGL-27) | CF release from liposomes [2] | share of the maximal CF release [2] [%] |
| --- | --- | --- | --- | --- | --- | --- |
| GGLIKTKRKRKKQRVKIAYEEIFVKNM [GGL27, C-terminal peptide of TFPI, plasmin-generated] | less significant | not enhanced | not significantly affected | impairs coagulation in a dose dependent manner | caused CF release | ~80 |
| LIKTKRKRKKQRVKIAY [LIK17] | less significant | not enhanced | not significantly affected | – | caused CF release | ~80 |
